Measurements published in ChEMBL document CHEMBL2177089, “Novel tetrahydropyrido[1,2-a]isoindolone derivatives (valmerins): potent cyclin-dependent kinase/glycogen synthase kinase 3 inhibitors with antiproliferative activities and antitumor effects in human tumor xenografts” (J Med Chem, 2012).
Active and inactive are the calls of the source. The calls are words filed in the database; no cut-off is given here.

Legend:
[1] = target: Glycogen synthase kinase-3 (Sus scrofa, UniProt B2LUN4+I6LNT8); assay: Inhibition of porcine brain GSK-3alpha/beta using YRRAAVPPSPSLSRHSSPHQpSEDEEE as substrate and [gamma-33P]-ATP after 30 mins by scintillation counting
[2] = target: Dual specificity tyrosine-phosphorylation-regulated kinase 1A (Homo sapiens, UniProt Q13627); assay: Inhibition of human recombinant GST-fused DYRK1A expressed in Escherichia coli using KKISGRLSPIMTEQ as substrate and [gamma-33P]-ATP after 30 mins by scintillation counting
[3] = Inhibition of porcine brain CK1delta/epsilon using RRKHAAIGpSAYSITA as substrate and [gamma-33P]-ATP after 30 mins by scintillation counting; set-up: species or system Sus scrofa
[4] = target: Cyclin-dependent kinase 5/CDK5 activator 1 (Homo sapiens, UniProt Q00535); assay: Inhibition of human recombinant CDK5/p25 using histone H1 as substrate and [gamma-33P]-ATP after 30 mins by scintillation counting; format: protein-complex assay
[5] = Cytotoxicity against human skin fibroblasts cells after 48 hrs; conditions: Fibroblast
NCI-H727 [6] = assay: cells; conditions: Homo sapiens, NCI-H727, 48 h
Description: Cytotoxicity against human NCI-H727 cells after 48 hrs

Caco-2 [7] = assay: cells; conditions: Homo sapiens, Caco-2, 48 h
Description: Cytotoxicity against human Caco2 cells after 48 hrs

HCT-116 [8] = assay: cells; conditions: Homo sapiens, HCT-116, 48 h
Description: Cytotoxicity against human HCT116 cells after 48 hrs

MDA-MB-231 [9] = assay: cells; conditions: Homo sapiens, MDA-MB-231, 48 h
Description: Cytotoxicity against human MDA-MB-231 cells after 48 hrs

PC-3 [10] = assay: cells; conditions: Homo sapiens, PC-3, 48 h
Description: Cytotoxicity against human PC3 cells after 48 hrs

Huh-7 [11] = assay: cells; conditions: Homo sapiens, Huh-7, 48 h
Description: Cytotoxicity against human HuH7 cells after 48 hrs

Mus musculus [12] = assay: Toxicity in NMRI mouse assessed as food consumption at 1 to 10 mg/kg, ip qd for 2 weeks; format: organism-based; set-up: dose 1-10 mg/kg, route intraperitoneal; conditions: in vivo, 336 h
HCT-116 [13] = assay: Antitumor activity against human HCT116 cells xenografted in nude NMRI mouse assessed as tumor reduction at 10 mg/kg, ip administered 3 times in a week for 4 weeks; format: functional; set-up: scale not given: the % may be the effect or the level left; conditions: route intraperitoneal
HCT-116 [14] = assay: Induction of apoptosis in human HCT116 cells assessed as activation of caspase-3 at 0.6 uM after 24 hrs; format: functional, cell-based
Huh-7 [15] = assay: Cell cycle arrest in human HuH7 cells assessed as accumulation at G1 phase at 0.6 uM after 24 hrs; format: functional, cell-based
NCI-H727 [16] = assay: Cell cycle arrest in human NCI-H727 cells assessed as accumulation at G1 phase at 0.6 uM after 24 hrs; format: functional, cell-based
MDA-MB-231 [17] = assay: Cell cycle arrest in human MDA-MB-231 cells assessed as accumulation at G1 phase at 0.6 uM after 24 hrs; format: functional, cell-based
Mus musculus [18] = assay: Toxicity in NMRI mouse assessed as weight loss at 1 to 10 mg/kg, ip qd for 2 weeks; format: organism-based; set-up: dose 1-10 mg/kg, route intraperitoneal; conditions: in vivo, 336 h
Mus musculus [19] = assay: Toxicity in NMRI mouse assessed as macroscopic examination of organs at 1 to 10 mg/kg, ip qd for 2 weeks; format: organism-based; set-up: dose 1-10 mg/kg, route intraperitoneal; conditions: in vivo, 336 h
Mus musculus [20] = assay: Toxicity in NMRI mouse assessed as blood formulation at 1 to 10 mg/kg, ip qd for 2 weeks; format: organism-based; set-up: dose 1-10 mg/kg, route intraperitoneal; conditions: in vivo, 336 h
Caco-2 [21] = assay: Cell cycle arrest in human Caco2 cells assessed as accumulation at G1 phase at 0.6 uM after 24 hrs; format: functional, cell-based
[22] = target: Cyclin-dependent kinase 1 (Homo sapiens, UniProt P06493); assay: Inhibition of CDK1
Mus musculus [23] = assay: Toxicity in NMRI mouse assessed as mortality at 1 to 10 mg/kg, ip qd for 2 weeks; format: organism-based; set-up: dose 1-10 mg/kg, route intraperitoneal; conditions: in vivo, 336 h
HCT-116 [24] = assay: Cell cycle arrest in human HCT116 cells assessed as accumulation at G1 phase at 0.6 uM after 24 hrs; format: functional, cell-based
PC-3 [25] = assay: Cell cycle arrest in human PC3 cells assessed as accumulation at G1 phase at 0.6 uM after 24 hrs; format: functional, cell-based
HCT-116 [26] = assay: Antitumor activity against human HCT116 cells xenografted in nude NMRI mouse assessed as tumor reduction at 10 mg/kg, ip administered 3 times in a week for 4 weeks by whole-body bioluminescent imaging; format: functional; set-up: scale not given: the % may be the effect or the level left; conditions: route intraperitoneal
MDA-MB-231 [27] = assay: Cell cycle arrest in human MDA-MB-231 cells assessed as accumulation at G1 phase at 1 uM after 24 hrs; format: functional, cell-based
HCT-116 [28] = assay: Cell cycle arrest in human HCT116 cells assessed as accumulation at G1 phase at 1 uM after 24 hrs; format: functional, cell-based
Caco-2 [29] = assay: Cell cycle arrest in human Caco2 cells assessed as accumulation at G1 phase at 1 uM after 24 hrs; format: functional, cell-based
HCT-116 [30] = assay: Induction of apoptosis in human HCT116 cells assessed as activation of caspase-3 at 1 uM after 24 hrs; format: functional, cell-based
Huh-7 [31] = assay: Cell cycle arrest in human HuH7 cells assessed as accumulation at G1 phase at 1 uM after 24 hrs; format: functional, cell-based
PC-3 [32] = assay: Cell cycle arrest in human PC3 cells assessed as accumulation at G1 phase at 1 uM after 24 hrs; format: functional, cell-based
NCI-H727 [33] = assay: Cell cycle arrest in human NCI-H727 cells assessed as accumulation at G1 phase at 1 uM after 24 hrs; format: functional, cell-based

Cyclin-dependent kinase 5/CDK5 activator 1, sequence (Q00535 whole entry): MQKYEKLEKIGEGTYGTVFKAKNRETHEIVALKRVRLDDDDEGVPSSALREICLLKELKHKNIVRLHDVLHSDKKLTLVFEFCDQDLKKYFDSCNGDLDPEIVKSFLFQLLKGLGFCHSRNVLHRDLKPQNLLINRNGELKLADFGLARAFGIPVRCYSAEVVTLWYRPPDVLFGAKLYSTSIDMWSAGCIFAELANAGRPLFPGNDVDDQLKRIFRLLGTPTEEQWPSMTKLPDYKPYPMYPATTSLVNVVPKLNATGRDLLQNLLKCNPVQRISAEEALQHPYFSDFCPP
Cyclin-dependent kinase 5/CDK5 activator 1, sequence (Q15078 whole entry, further chain): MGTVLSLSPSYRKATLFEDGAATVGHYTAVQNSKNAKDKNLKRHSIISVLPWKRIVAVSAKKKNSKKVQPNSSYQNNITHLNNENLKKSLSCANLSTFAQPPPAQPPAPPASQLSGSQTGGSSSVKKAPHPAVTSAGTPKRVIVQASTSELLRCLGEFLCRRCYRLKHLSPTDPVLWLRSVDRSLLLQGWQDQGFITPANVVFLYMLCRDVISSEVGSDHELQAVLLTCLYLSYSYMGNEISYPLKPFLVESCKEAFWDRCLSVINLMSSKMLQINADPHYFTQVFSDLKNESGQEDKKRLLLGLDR
Cyclin-dependent kinase 1, sequence (P06493 whole entry): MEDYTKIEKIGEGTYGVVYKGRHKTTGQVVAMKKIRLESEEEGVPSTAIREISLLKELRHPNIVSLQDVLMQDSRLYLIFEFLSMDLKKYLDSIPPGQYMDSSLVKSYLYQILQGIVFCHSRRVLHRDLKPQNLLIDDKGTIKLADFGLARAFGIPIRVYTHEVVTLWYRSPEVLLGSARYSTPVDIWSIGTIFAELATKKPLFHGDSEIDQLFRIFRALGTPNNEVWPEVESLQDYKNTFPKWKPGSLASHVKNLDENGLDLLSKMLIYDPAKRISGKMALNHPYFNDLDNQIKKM

Cn1ccc(NC(=O)Nc2cccc3c2C2CCCCN2C3=O)n1 (stereo not given)
IC50 [1]: 310 nM

O=C(Nc1ccc(Br)cn1)Nc1cccc2c1C1CCCCN1C2=O (stereo not given)
IC50 [2]: > 10000 nM | IC50 [1]: 76 nM

O=C(Nc1ccc(O)cn1)Nc1cccc2c1C1CCCCN1C2=O (stereo not given)
IC50 [2]: > 10000 nM | IC50 [3]: ≥ 10000 nM | IC50 [1]: 4000 nM | IC50 [4]: 1300 nM

O=C(Nc1cc(Br)ccn1)Nc1cccc2c1C1CCCCN1C2=O (stereo not given)
IC50 [2]: 7600 nM | IC50 [5]: 500 nM | IC50 (NCI-H727 [6]): 400 nM | IC50 (Caco-2 [7]): 100 nM | IC50 (HCT-116 [8]): 100 nM | IC50 (MDA-MB-231 [9]): 500 nM | IC50 (PC-3 [10]): 100 nM | IC50 [3]: 1300 nM | IC50 [1]: 22 nM | IC50 [4]: 25 nM | IC50 (Huh-7 [11]): 5000 nM

O=C(Nc1cccc2c1C1CCCCN1C2=O)NC1CCCCC1 (stereo not given)
IC50 [2]: > 10000 nM | IC50 [1]: > 10000 nM | IC50 [4]: > 10000 nM

Cc1cc(NC(=O)Nc2cccc3c2C2CCCCN2C3=O)no1 (stereo not given)
IC50 [1]: 330 nM

O=C(Nc1ccccc1)Nc1cccc2c1C1CCCCN1C2=O (stereo not given)
IC50 [2]: > 10000 nM | IC50 [1]: > 10000 nM | IC50 [4]: > 10000 nM

O=C(Nc1cccc2c1C1CCCCN1C2=O)Nc1ncccc1O (stereo not given)
IC50 [2]: 1800 nM | IC50 [5]: 3000 nM | IC50 (NCI-H727 [6]): 800 nM | IC50 (Caco-2 [7]): 6000 nM | IC50 (HCT-116 [8]): 1000 nM | IC50 (MDA-MB-231 [9]): 2000 nM | IC50 (PC-3 [10]): 400 nM | IC50 [3]: 1500 nM | IC50 [1]: 51 nM | IC50 [4]: 37 nM | IC50 (Huh-7 [11]): 500 nM

O=C(Nc1cscn1)Nc1cccc2c1C1CCCCN1C2=O (stereo not given)
IC50 [1]: 760 nM

O=C(Nc1csc(-c2ccncc2)n1)Nc1cccc2c1C1CCCCN1C2=O (stereo not given)
IC50 [1]: 130 nM

O=C(Nc1cc2ccccc2cn1)Nc1cccc2c1C1CCCCN1C2=O (stereo not given)
IC50 [2]: > 10000 nM | IC50 [5]: 4000 nM | IC50 (NCI-H727 [6]): 3000 nM | IC50 (Caco-2 [7]): 1000 nM | IC50 (HCT-116 [8]): 1000 nM | IC50 (MDA-MB-231 [9]): 3000 nM | IC50 (PC-3 [10]): 2000 nM | IC50 [1]: 170 nM | IC50 [4]: 68 nM | IC50 (Huh-7 [11]): 2000 nM

O=C(Nc1cc(O)c2ccccc2n1)Nc1cccc2c1C1CCCCN1C2=O (stereo not given)
IC50 [2]: 5600 nM | IC50 [1]: 1200 nM | IC50 [4]: 10000 nM

O=C(Nc1cccc(Br)n1)Nc1cccc2c1C1CCCCN1C2=O (stereo not given)
IC50 [5]: > 25000 nM | IC50 (NCI-H727 [6]): > 25000 nM | IC50 (Caco-2 [7]): > 25000 nM | IC50 (HCT-116 [8]): > 25000 nM | IC50 (MDA-MB-231 [9]): > 25000 nM | IC50 (PC-3 [10]): > 25000 nM | IC50 [1]: 43 nM | IC50 (Huh-7 [11]): > 25000 nM

Cc1nc(NC(=O)Nc2cccc3c2C2CCCCN2C3=O)cs1 (stereo not given)
IC50 [1]: 120 nM

COc1cccnc1NC(=O)Nc1cccc2c1C1CCCCN1C2=O (stereo not given)
IC50 [2]: 8100 nM | IC50 [3]: 2600 nM | IC50 [1]: 1300 nM | IC50 [4]: 590 nM

O=C(Nc1cc(-c2ccccc2)on1)Nc1cccc2c1C1CCCCN1C2=O (stereo not given)
IC50 [1]: 270 nM

O=C(Nc1cccc(F)n1)Nc1cccc2c1C1CCCCN1C2=O (stereo not given)
IC50 [5]: 400 nM | IC50 (NCI-H727 [6]): 500 nM | IC50 (Caco-2 [7]): 150 nM | IC50 (HCT-116 [8]): 90 nM | IC50 (MDA-MB-231 [9]): 90 nM | IC50 (PC-3 [10]): 200 nM | IC50 [1]: 26 nM | IC50 [4]: 90 nM | IC50 (Huh-7 [11]): 120 nM

O=C(Nc1ncccn1)Nc1cccc2c1C1CCCCN1C2=O (stereo not given)
IC50 [1]: 750 nM

O=C(Nc1cccc2c1C1CCCCN1C2=O)Nc1ncc(F)cc1F (stereo not given)
IC50 [2]: > 10000 nM | IC50 [3]: > 10000 nM | IC50 [1]: 200 nM | IC50 [4]: 260 nM

O=C(Nc1ccccn1)Nc1cccc2c1C1CCCCN1C2=O (stereo not given)
Activity (Mus musculus [12]): Non-toxic | Activity (HCT-116 [13]): 45.3% | Activity (HCT-116 [14]): Active | Activity (Huh-7 [15]): Active | Activity (NCI-H727 [16]): Active | Activity (MDA-MB-231 [17]): Active | Activity (Mus musculus [18]): Non-toxic | Activity (Mus musculus [19]): Non-toxic | Activity (Mus musculus [20]): Non-toxic | Activity (Caco-2 [21]): Active | IC50 [22]: 75 nM | Activity (Mus musculus [23]): Non-toxic | Activity (HCT-116 [24]): Active | Activity (PC-3 [25]): Active | Activity (HCT-116 [26]): 51%

O=C(Nc1ccc2cccc(O)c2n1)Nc1cccc2c1C1CCCCN1C2=O (stereo not given)
IC50 [2]: > 10000 nM | IC50 [1]: 150 nM | IC50 [4]: 700 nM

O=C(Nc1ccncn1)Nc1cccc2c1C1CCCCN1C2=O (stereo not given)
IC50 [2]: > 10000 nM | IC50 [1]: 380 nM

O=C(Nc1cnccn1)Nc1cccc2c1C1CCCCN1C2=O (stereo not given)
Activity (MDA-MB-231 [27]): Active | Activity (HCT-116 [28]): Active | Activity (Caco-2 [29]): Active | Activity (HCT-116 [30]): Active | Activity (Huh-7 [31]): Active | Activity (PC-3 [32]): Active | Activity (NCI-H727 [33]): Active

O=C(Nc1cccc2c1C1CCCCN1C2=O)Nc1nc(Cl)c(Cl)c(Cl)c1Cl (stereo not given)
IC50 [2]: > 10000 nM | IC50 [1]: 4300 nM | IC50 [4]: 10000 nM

O=C(Nc1cccc(N2CCCCC2)n1)Nc1cccc2c1C1CCCCN1C2=O (stereo not given)
IC50 [2]: > 10000 nM | IC50 [3]: > 10000 nM | IC50 [1]: 360 nM | IC50 [4]: > 10000 nM

O=C(Nc1cc[nH]n1)Nc1cccc2c1C1CCCCN1C2=O (stereo not given)
IC50 [1]: 470 nM

O=C(Nc1ccc(-c2ccccc2)cn1)Nc1cccc2c1C1CCCCN1C2=O (stereo not given)
IC50 [2]: > 10000 nM | IC50 [3]: > 10000 nM | IC50 [1]: 140 nM | IC50 [4]: 4000 nM

O=C(Nc1nc2ccccc2s1)Nc1cccc2c1C1CCCCN1C2=O (stereo not given)
IC50 [2]: > 10000 nM | IC50 [1]: 3500 nM
